According to ChEMBL document CHEMBL1201862, “PubChem BioAssay data set” (2004):
Each block holds one molecule with its values, some of them ahead of it. Calls of active or inactive are those of the source.

Columns and labels:
[1] = growth suppression of PTEN-null colon cells, dose response, cell-based, HCT116 PTEN knockout (AID 1047); format: functional;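 further: HCT116 colon tumor cells with PTEN knocked out; cells exposed to compound for 60 hours before readout; potency for loss of cell viability measured by luminescence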
[2] = growth suppression of beta-catenin-knockout colon cells, dose response, cell-based, HCT116, human colon tumor (AID 1045); format: functional;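 further: HCT116 colon tumor cells with beta catenin knocked out; cells exposed to compound for 60 hours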
[3] = molecular target: T1, High affinity choline transporter 1 (Homo sapiens, UniProt Q9GZV3); experiment: CHT inhibitors, dose response, cell-based, 5-point CRC, membrane potential dye (AID 504840); format: functional
T1 sequence (Q9GZV3 whole entry): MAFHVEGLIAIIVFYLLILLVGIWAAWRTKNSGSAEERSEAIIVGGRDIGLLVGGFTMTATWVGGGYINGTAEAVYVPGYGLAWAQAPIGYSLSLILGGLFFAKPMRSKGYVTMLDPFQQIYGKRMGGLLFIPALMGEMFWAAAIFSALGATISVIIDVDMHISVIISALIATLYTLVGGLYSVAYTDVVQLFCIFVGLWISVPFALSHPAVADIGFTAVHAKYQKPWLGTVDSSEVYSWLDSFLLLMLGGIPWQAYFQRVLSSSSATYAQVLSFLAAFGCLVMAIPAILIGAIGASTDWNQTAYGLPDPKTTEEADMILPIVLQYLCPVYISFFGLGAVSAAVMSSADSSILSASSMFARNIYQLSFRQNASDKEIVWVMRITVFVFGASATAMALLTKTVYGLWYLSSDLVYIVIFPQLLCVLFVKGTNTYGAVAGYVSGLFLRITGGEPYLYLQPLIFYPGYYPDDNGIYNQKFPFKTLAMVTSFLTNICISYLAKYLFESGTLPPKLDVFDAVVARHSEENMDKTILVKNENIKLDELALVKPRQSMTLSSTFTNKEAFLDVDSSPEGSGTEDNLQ

Fatty acid synthase [4] = molecular target: T2, Fatty acid synthase (Homo sapiens, UniProt P49327); experiment: FAS thioesterase domain inhibitors, dose response, biochemical, endpoint fluorescence intensity, uHTS hits (AID 624327); format: functional;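 further: fluorescence from hydrolysis of an O-methyl fluorescein acyl ester substrate by the enzyme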
T2 sequence (P49327 whole entry, the tested form may be a part): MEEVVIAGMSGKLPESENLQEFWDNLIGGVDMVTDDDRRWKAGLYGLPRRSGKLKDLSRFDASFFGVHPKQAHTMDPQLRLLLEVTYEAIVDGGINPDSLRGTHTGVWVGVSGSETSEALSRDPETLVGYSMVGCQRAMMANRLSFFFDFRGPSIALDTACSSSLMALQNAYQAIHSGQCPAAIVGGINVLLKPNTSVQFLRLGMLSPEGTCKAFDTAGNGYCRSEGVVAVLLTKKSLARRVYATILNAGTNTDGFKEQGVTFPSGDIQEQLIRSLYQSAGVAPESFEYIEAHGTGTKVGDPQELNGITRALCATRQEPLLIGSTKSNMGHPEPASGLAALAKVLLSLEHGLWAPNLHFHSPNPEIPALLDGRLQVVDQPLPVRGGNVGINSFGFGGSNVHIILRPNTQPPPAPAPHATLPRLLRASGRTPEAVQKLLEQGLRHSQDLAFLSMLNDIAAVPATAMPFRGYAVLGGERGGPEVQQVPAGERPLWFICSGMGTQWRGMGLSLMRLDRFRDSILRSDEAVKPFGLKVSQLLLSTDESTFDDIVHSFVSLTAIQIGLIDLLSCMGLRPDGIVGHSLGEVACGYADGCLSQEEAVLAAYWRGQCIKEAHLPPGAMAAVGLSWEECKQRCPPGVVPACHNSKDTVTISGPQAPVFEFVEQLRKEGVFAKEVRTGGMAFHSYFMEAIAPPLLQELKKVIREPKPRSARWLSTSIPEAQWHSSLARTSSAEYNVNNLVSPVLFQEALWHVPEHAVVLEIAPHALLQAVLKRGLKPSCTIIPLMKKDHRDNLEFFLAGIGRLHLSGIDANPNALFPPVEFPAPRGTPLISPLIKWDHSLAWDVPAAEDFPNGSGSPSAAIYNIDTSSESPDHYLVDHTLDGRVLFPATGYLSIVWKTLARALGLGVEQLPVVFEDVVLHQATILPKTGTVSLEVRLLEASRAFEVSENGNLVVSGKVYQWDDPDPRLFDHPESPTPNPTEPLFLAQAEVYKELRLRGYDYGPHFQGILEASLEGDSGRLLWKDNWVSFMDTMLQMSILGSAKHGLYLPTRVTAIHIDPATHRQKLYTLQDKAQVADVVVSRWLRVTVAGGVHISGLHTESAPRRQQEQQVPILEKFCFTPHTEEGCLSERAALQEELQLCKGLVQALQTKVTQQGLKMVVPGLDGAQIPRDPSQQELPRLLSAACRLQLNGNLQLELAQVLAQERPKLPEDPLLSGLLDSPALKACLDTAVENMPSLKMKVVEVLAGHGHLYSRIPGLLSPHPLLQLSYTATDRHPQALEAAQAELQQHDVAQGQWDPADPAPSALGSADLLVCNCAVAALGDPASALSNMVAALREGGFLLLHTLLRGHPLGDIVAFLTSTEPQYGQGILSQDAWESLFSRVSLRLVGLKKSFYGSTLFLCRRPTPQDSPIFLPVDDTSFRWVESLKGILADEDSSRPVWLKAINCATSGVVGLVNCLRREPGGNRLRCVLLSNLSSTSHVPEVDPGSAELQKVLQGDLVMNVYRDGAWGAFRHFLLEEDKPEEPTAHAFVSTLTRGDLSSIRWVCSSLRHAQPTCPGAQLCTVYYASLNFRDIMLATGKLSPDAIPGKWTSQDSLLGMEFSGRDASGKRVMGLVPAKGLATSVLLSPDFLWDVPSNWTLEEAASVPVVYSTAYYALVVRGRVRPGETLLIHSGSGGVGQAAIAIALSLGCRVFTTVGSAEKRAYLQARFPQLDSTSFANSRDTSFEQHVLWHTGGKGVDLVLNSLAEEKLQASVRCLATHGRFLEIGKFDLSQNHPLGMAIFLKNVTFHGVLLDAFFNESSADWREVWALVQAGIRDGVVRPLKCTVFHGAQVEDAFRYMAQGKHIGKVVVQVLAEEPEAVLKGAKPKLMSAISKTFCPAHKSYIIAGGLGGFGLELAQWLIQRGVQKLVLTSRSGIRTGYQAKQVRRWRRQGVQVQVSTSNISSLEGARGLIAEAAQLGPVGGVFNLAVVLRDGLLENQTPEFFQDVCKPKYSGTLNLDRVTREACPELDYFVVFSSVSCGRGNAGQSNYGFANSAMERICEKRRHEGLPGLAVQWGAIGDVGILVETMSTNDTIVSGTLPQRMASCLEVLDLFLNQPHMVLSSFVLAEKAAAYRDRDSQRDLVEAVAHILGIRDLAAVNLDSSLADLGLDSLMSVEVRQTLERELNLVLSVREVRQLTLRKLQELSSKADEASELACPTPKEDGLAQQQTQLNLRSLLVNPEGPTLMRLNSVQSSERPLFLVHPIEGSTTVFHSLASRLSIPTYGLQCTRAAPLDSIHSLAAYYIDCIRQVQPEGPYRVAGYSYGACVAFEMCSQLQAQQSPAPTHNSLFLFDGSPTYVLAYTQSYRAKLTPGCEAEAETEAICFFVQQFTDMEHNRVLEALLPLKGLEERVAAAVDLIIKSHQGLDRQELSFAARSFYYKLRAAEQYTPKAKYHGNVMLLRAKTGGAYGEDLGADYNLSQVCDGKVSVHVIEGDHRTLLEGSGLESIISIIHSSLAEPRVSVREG

Fatty acid synthase [5] = molecular target: T2, Fatty acid synthase; experiment: FAS thioesterase domain inhibitors, dose response, biochemical, kinetic fluorescence intensity (AID 624326); format: functional;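 further: rate of fluorescence rise from hydrolysis of a fluorogenic O-methyl fluorescein ester substrate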
cells [6] = format: functional, cell-based
cells [7] = format: functional, cell-based; remark: listed apart in the source
Beta-galactosidase = Beta-galactosidase (Escherichia coli, UniProt Q8VNN2); experiment: PubChem AID 485352; format: functional
[8] = molecular target: T3, Type-1 angiotensin II receptor (Homo sapiens, UniProt P30556); experiment: AT1 receptor antagonists, dose response, selectivity assay for APJ receptor antagonist project, cell-based, uHTS hits (AID 463214); format: functional;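 further: antagonist potency against angiotensin II stimulated AT1 response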
T3 sequence (P30556 whole entry): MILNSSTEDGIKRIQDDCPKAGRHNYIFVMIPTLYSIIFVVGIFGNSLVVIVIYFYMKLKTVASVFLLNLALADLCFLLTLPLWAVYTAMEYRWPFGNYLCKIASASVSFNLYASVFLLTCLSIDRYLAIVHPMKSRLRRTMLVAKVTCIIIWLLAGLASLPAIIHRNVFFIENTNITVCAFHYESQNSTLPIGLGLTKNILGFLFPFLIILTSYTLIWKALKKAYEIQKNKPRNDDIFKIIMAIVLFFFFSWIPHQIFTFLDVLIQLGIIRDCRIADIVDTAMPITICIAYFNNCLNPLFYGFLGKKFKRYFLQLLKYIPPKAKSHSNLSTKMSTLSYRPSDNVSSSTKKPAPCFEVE

[9] = molecular target: T4, Heat shock factor protein 1 (Mus musculus, UniProt P38532); experiment: inhibition of MG132-induced HSE-luciferase signal, confirmation, cell-based, NIH3T3, luminescence, dose retest (AID 2382); format: functional;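 further: NIH3T3 fibroblasts with HSF1-driven luciferase reporter stressed by proteasome inhibitor MG132; luminescence from HSF1-driven luciferase expression after 8 hours of MG132 stress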
T4 sequence (P38532 whole entry): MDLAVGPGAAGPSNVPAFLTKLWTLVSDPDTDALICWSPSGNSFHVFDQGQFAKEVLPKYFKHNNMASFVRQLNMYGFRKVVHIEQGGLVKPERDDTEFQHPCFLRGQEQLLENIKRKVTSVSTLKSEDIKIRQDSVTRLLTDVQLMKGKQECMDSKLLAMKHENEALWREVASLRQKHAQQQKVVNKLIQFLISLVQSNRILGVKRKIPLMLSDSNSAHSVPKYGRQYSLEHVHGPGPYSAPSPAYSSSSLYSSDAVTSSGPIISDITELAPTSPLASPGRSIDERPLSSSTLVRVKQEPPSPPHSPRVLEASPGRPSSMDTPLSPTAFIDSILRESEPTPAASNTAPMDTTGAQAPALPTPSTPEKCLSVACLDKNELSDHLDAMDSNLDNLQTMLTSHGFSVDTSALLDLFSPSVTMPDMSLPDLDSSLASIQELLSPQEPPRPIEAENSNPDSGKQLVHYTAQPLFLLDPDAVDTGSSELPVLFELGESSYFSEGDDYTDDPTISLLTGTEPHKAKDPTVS

[10] = molecular target: T5, Ubiquitin-conjugating enzyme E2 N (Homo sapiens, UniProt P61088); format: functional;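 further: Dose-response confirmation in a TR-FRET assay detecting UBC13-driven polyubiquitin chain formation, inhibition measured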
T5 sequence (P61088 whole entry): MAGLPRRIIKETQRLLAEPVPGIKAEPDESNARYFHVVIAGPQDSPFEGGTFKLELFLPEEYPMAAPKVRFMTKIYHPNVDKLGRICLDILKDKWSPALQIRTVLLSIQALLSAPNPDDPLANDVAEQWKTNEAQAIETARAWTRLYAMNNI

[11] = molecular target: Voltage-dependent T-type calcium channel subunit alpha-1H (Homo sapiens, UniProt O95180); format: functional;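 further: channel activity triggered by adding a high calcium stimulation buffer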
Sequence of Voltage-dependent T-type calcium channel subunit alpha-1H (O95180 whole entry): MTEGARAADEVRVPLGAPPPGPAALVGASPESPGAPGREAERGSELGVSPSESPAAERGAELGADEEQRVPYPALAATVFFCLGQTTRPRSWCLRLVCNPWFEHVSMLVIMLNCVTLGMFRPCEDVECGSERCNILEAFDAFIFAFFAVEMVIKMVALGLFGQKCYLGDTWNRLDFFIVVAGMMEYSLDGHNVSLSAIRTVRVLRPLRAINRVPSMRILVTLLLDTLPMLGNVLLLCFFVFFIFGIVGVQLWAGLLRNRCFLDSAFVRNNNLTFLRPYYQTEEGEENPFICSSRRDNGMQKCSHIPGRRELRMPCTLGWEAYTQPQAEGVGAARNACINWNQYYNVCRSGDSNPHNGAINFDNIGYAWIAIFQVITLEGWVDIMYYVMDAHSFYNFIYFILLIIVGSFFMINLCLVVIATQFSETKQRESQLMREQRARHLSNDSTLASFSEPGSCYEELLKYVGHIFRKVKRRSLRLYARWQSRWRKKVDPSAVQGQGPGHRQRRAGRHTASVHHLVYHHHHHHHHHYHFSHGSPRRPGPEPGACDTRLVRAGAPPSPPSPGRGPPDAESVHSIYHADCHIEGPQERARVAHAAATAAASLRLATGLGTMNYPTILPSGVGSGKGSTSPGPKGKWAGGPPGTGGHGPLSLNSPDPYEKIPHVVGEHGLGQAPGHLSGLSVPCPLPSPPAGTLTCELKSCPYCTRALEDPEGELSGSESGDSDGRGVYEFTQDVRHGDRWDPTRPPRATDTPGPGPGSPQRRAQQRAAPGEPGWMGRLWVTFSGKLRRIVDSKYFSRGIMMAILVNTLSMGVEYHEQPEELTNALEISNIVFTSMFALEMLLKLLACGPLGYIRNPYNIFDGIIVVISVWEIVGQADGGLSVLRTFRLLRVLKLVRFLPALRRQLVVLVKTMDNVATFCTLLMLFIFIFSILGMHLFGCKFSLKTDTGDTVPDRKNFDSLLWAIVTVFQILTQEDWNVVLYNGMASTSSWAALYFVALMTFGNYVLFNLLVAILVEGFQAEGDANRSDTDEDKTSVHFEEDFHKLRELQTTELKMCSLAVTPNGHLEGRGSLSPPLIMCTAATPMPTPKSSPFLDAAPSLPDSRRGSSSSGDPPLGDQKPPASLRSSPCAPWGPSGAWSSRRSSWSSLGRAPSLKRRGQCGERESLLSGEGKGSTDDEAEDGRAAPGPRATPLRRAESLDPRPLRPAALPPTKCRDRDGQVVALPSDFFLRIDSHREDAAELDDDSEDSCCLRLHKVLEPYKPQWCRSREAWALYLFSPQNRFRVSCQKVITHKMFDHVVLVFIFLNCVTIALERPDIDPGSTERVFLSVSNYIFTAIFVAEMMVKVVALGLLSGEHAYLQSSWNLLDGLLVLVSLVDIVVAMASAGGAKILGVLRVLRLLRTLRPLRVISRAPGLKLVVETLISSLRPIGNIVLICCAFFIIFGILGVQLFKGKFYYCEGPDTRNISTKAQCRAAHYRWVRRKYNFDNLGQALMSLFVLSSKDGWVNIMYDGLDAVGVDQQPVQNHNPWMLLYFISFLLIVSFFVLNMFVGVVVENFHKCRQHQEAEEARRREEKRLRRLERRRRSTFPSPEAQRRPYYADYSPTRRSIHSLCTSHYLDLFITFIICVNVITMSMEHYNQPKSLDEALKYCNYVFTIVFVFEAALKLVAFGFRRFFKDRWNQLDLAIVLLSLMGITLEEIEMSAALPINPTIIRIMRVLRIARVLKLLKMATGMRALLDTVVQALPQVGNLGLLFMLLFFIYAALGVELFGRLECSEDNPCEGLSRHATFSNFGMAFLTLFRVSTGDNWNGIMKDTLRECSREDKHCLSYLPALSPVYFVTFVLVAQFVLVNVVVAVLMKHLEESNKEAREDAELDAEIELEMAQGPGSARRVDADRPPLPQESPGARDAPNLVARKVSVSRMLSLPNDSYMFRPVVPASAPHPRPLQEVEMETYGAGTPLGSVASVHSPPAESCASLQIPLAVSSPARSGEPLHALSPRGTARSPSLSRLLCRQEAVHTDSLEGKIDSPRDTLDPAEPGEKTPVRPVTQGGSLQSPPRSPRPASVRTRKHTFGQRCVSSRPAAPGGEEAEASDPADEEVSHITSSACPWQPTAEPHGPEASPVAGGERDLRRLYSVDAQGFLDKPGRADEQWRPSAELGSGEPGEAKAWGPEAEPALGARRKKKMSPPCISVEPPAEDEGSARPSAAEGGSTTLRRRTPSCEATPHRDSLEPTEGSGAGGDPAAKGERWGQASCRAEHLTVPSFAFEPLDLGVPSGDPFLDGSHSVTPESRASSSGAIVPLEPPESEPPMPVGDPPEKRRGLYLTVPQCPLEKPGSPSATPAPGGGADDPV

[12] = Luminescence Cell-Based Dose Retest to Confirm Inhibitors of Cancer Stem Cells. [Related pubchem assays (depositor defined):AID2717, AID2721]; format: functional; settings: Homo sapiens
[13] = molecular target: T6, Calpain-2 catalytic subunit (Sus scrofa, UniProt P43367); experiment: pig calpain II inhibitor potency, dose response, biochemical, fluorogenic peptide substrate (AID 1420); format: functional
T6 sequence (P43367 whole entry): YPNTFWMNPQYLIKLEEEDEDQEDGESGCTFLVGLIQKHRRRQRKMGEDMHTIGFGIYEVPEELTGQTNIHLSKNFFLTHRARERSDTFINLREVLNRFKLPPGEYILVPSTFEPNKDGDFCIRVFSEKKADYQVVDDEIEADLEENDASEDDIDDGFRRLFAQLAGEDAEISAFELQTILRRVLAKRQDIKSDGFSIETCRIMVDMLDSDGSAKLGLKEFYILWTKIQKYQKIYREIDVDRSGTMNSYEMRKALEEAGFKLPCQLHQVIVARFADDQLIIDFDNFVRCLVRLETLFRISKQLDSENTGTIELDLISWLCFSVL

[14] = inhibitors of HIV Env-driven cell fusion, dose response, cherry-pick (AID 652057); format: functional, cell-based
[15] = ZM109 Env clade C HIV-1 fusion inhibitors, dose response, HeLa effector, CEM target cells, luciferase, cherry-pick (AID 652058); format: functional, cell-based
[16] = inhibitors of clade B AD8 Env fusion, dose response, cell-based, cherry-pick (AID 652062); format: functional;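 further: luciferase signal from cell-cell fusion driven by HIV-1 clade B AD8 Env; potency is for inhibitors of fusion seen as a drop in luminescence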
[17] = molecular target: T7, Rac GTPase-activating protein 1 (Homo sapiens, UniProt Q9H0H5); experiment: MgcRacGAP GTPase-activating activity inhibitors, confirmation, biochemical, ADP Hunter fluorescence, primary and confirmatory (AID 624330); format: functional
T7 sequence (Q9H0H5 whole entry): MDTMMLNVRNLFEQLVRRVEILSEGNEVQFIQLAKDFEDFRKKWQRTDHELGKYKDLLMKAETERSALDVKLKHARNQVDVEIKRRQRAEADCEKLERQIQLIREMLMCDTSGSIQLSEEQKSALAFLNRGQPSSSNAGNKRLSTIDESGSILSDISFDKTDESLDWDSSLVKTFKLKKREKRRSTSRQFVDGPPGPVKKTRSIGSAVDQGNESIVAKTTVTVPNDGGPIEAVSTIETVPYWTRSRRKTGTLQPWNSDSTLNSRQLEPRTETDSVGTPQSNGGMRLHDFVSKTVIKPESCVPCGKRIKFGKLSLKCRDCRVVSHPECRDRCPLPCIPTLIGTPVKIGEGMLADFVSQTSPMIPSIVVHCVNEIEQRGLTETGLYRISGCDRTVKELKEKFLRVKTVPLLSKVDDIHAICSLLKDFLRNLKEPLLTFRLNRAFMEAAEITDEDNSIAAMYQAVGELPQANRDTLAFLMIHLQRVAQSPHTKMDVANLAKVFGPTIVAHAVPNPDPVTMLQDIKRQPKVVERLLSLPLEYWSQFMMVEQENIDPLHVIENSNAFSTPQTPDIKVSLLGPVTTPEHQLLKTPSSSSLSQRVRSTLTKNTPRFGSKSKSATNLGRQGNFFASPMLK

IC50 [3]: 0.794 µM (active)
SMILES: CCOC(=O)c1cccc(NC(=O)CSc2nnc(C)n2Cc2ccccc2)c1

IC50 (Fatty acid synthase [4]): 5.21 µM (active)
IC50 (Fatty acid synthase [5]): 4.83 µM (active)
SMILES: O=C(O)CCN(CC(=O)c1ccc(Cl)cc1)S(=O)(=O)c1ccc([N+](=O)[O-])cc1

IC50 [3]: 11.8 µM (active)
SMILES: CCCCn1nc2cc(C(=O)NCCc3cccs3)ccc2c1OCC

IC50 (Fatty acid synthase [4]): 2.25 µM (active)
IC50 (Fatty acid synthase [5]): 2.02 µM (active)
SMILES: COc1ccc(CC(=O)N(C)Cc2ccc(C(C)(C)C)cc2)cc1S(=O)(=O)N1CCOCC1

EC50 (Beta-galactosidase): > 40 µM (inactive)
IC50 [8]: 39.3 µM (not active)
SMILES: Cc1ccccc1N=C(S)NNc1ncc(C(F)(F)F)cc1Cl

IC50 [10]: > 20 µM (inactive)
IC50 [3]: 13.8 µM (active)
SMILES: COc1ccc(CCN(C)C(=O)c2ccc(COc3ccccc3)o2)cc1OC

EC50 [11]: 8.73 µM (active)
SMILES: Cc1nc(-c2ccccc2)sc1-c1nc(-c2cccnc2)ncc1S(=O)(=O)c1ccccc1

EC50 [11]: 3.32 µM (active)
SMILES: COc1cccc(CNC(=O)CSCc2cnn(-c3ccccc3)c2-n2cccc2)c1OC

IC50 [13]: 9.49 µM (not active)
EC50 [11]: 3.96 µM (active)
SMILES: Cc1cc(NC(=O)COC(=O)C(Nc2ccc(C(F)(F)F)cc2Cl)C(C)C)no1 (stereo unspecified)

IC50 (Fatty acid synthase [4]): 7.16 µM (active)
IC50 (Fatty acid synthase [5]): 8.91 µM (active)
SMILES: COc1ccc2[nH]c3c(c2c1)CCN1C(=O)C(CC(=O)NCCc2ccccn2)C[C@H](C(=O)N2CCOCC2)[C@@]31CCC1CCCC1 (stereo partly specified)

The next lines start with the molecule.

SMILES: COc1ccc(-c2csc3nc(-c4cccnc4)nc(Cl)c23)cc1OC
EC50 [1]: 11.5 µM (active)
EC50 [2]: 10.4 µM (active)

SMILES: CCN1CCN(c2ccc(NC(=O)c3ccc4c(c3)nc(O)n4Cc3ccc(OC)cc3)cc2)CC1
EC50 [1]: 34.2 µM (active)
EC50 [2]: 32.2 µM (active)

SMILES: COc1ccc(N2CCN(S(=O)(=O)c3cc(-c4cc(C)no4)ccc3C(C)C)CC2)cc1
EC50 (cells [6]): > 350 µM (not active)
EC50 (cells [7]): > 350 µM (not active)

SMILES: CCCN=C(S)N1CCCC(c2nc3ccccc3[nH]2)C1 (stereo unspecified)
EC50 (cells [6]): > 350 µM (not active)
EC50 [9]: > 195 µM (not active)
EC50 (cells [7]): > 350 µM (not active)

SMILES: O=C(COC(=O)c1cc([N+](=O)[O-])ccc1Cl)NC1CCCC1
IC50 (Fatty acid synthase [4]): 0.979 µM (active)
IC50 (Fatty acid synthase [5]): 1.12 µM (active)

SMILES: COc1cc2c(cc1OC)C1(Nc3c-2c(C)nn3-c2ccccc2)C(=O)Nc2ccccc21 (stereo unspecified)
EC50 [2]: 73.2 µM (active)

SMILES: O=C1C=C(c2ccc(Cl)c(C(F)(F)F)c2)C[C@@H](c2ccc3c(c2)OCO3)C1
AC50 [12]: 5.04 µM (active)
IC50 (Fatty acid synthase [4]): 5.66 µM (active)
IC50 (Fatty acid synthase [5]): 5.82 µM (active)

SMILES: O=C(CSc1c[nH]c2ccccc12)NCc1ccc2c(c1)OCO2
EC50 (cells [6]): > 350 µM (not active)
EC50 (cells [7]): > 350 µM (not active)

SMILES: CCN(CC)S(=O)(=O)c1ccc(NC(=O)CCC2CCCCC2)cc1
EC50 [11]: 10.3 µM (active)

SMILES: N=c1c2c(ncn1Cc1ccco1)Oc1c(ccc3ccccc13)C2c1ccccc1 (stereo unspecified)
EC50 [1]: 5.53 µM (active)
EC50 [2]: 5.92 µM (active)
AC50 [12]: 2.25 µM (active)

SMILES: CCCOc1cccc(C2C(C(=O)c3ccco3)=C(O)C(=O)N2CCCn2ccnc2)c1 (stereo unspecified)
EC50 (cells [6]): > 350 µM (not active)
EC50 (cells [7]): > 350 µM (not active)

SMILES: CC(C)c1nc(C(=O)N2CCCC(N3CCN(c4cccc(Cl)c4)CC3)C2)cs1 (stereo unspecified)
IC50 [3]: 13.2 µM (active)

SMILES: C[C@H](CO)N1C[C@H](C)[C@H](CN(C)S(=O)(=O)c2cccc(F)c2)Oc2cc(Br)ccc2S1(=O)=O
AC50 [14]: 5.29 µM (active)
AC50 [15]: 3.27 µM (active)
AC50 [16]: 33.5 µM (active)

SMILES: Cc1ccc(NC(=O)CCC(=O)N/N=C/c2ccc(O)cc2O)cc1
EC50 (cells [6]): > 350 µM (not active)
EC50 (cells [7]): > 350 µM (not active)
IC50 [17]: 56.6 µM (active)

SMILES: C[C@H](CO)N1C[C@H](C)[C@H](CN(C)Cc2ccccc2)Oc2cc(-c3ccccc3)ccc2S1(=O)=O
AC50 [14]: 18.9 µM (active)
AC50 [15]: 21 µM (active)
AC50 [16]: 26.7 µM (active)

SMILES: Cn1c(=O)cc(C(=O)N/N=C/c2ccc(F)cc2)[nH]c1=O
EC50 (cells [6]): > 350 µM (not active)
EC50 (cells [7]): > 350 µM (not active)
